Results taken from PubChem BioAssay (NCI).
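Step 1: Grow cells in 96-well plates. Step 2: Expose to compound for 48 hours at 5 concentrations. Step 3: Interpolate endpoints linearly; if unreached, use highest concentration. TGI: total growth inhibition.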

Columns and labels:
Assay in all cases: growth of human tumour cells (NCI), 48 h
A498 renal = test system: A498 renal
RXF 393 renal = test system: RXF 393 renal
CAKI-1 renal = test system: CAKI-1 renal
UACC-257 melanoma = test system: UACC-257 melanoma
DU-145 prostate = test system: DU-145 prostate
HOP-92 NSCLC = test system: HOP-92 NSCLC
HT29 colon = test system: HT29 colon
CCRF-CEM leukemia = test system: CCRF-CEM leukemia
M14 melanoma = test system: M14 melanoma
SF-295 CNS = test system: SF-295 CNS
SW-620 colon = test system: SW-620 colon
OVCAR-3 ovarian = test system: OVCAR-3 ovarian
K-562 leukemia = test system: K-562 leukemia
U251 CNS = test system: U251 CNS
OVCAR-5 ovarian = test system: OVCAR-5 ovarian
NCI-H226 lung = test system: NCI-H226 lung
HCC-2998 colon = test system: HCC-2998 colon
SF-539 CNS = test system: SF-539 CNS

Compound | TGI (A498 renal) | TGI (RXF 393 renal) | TGI (CAKI-1 renal) | TGI (UACC-257 melanoma) | TGI (DU-145 prostate) | TGI (HOP-92 NSCLC) | TGI (HT29 colon) | TGI (CCRF-CEM leukemia) | TGI (M14 melanoma) | TGI (SF-295 CNS) | TGI (SW-620 colon) | TGI (OVCAR-3 ovarian) | TGI (K-562 leukemia) | TGI (U251 CNS) | TGI (OVCAR-5 ovarian) | TGI (NCI-H226 lung) | TGI (HCC-2998 colon) | TGI (SF-539 CNS)
O=S(=O)(O)c1ccc2c(N=Nc3ccccc3Cl)c(O)ccc2c1 | > 100 µM | > 100 µM | > 100 µM | > 100 µM | > 100 µM | > 100 µM | > 100 µM | > 100 µM | > 100 µM | > 100 µM | > 100 µM | > 100 µM | > 100 µM | > 100 µM | > 100 µM | – | – | –
CCOC(=O)c1cc(=O)oc2c1N(C)c1ncccc1N2 | > 100 µM | > 100 µM | > 100 µM | > 100 µM | > 100 µM | – | – | – | > 100 µM | > 100 µM | > 100 µM | > 100 µM | > 100 µM | > 100 µM | > 100 µM | > 100 µM | > 100 µM | –
O=C(N/N=C\c1ccc([N+](=O)[O-])cc1)c1ccccc1Nc1ccccc1C(=O)N/N=C/c1ccc([N+](=O)[O-])cc1 | > 100 µM | > 100 µM | > 100 µM | > 100 µM | > 100 µM | > 100 µM | > 100 µM | > 100 µM | 79.7 µM | > 100 µM | > 100 µM | > 100 µM | > 100 µM | > 100 µM | > 100 µM | > 100 µM | > 100 µM | –
CC(=O)O[C@H]1C(=O)[C@@]2(C)[C@H]([C@H](OC(=O)c3ccccc3)[C@]3(O)C[C@H](OC(=O)[C@H](O)[C@@H](NC(=O)CC(C)C)c4ccccc4)C(C)=C1C3(C)C)[C@]1(OC(C)=O)CO[C@@H]1C[C@@H]2O | > 10 µM | – | > 10 µM | > 10 µM | 0.188 µM | 9.85 µM | 0.0296 µM | > 10 µM | > 10 µM | 0.508 µM | > 10 µM | – | > 10 µM | > 10 µM | > 10 µM | > 10 µM | 0.0636 µM | 0.196 µM
CN(C)CCNC(=O)c1ccc(NCCCN(C)CCCNc2ccc(C(=O)NCCN(C)C)c3[nH]c4ccc([N+](=O)[O-])cc4c(=O)c23)c2c(=O)c3cc([N+](=O)[O-])ccc3[nH]c12 | 0.537 µM | 0.351 µM | 3.75 µM | 1.62 µM | 0.641 µM | 0.933 µM | 1.02 µM | 0.145 µM | 2.09 µM | – | 0.557 µM | 1.94 µM | 1.83 µM | 0.162 µM | 1.71 µM | – | 0.254 µM | –
CCOC(=O)/C=C(\N=P(c1ccccc1)(c1ccccc1)c1ccccc1)C(F)(F)C(F)(F)C(F)(F)C(F)(F)C(F)(F)F | 72.4 µM | > 100 µM | > 100 µM | > 100 µM | > 100 µM | > 100 µM | > 100 µM | > 100 µM | > 100 µM | > 100 µM | > 100 µM | > 100 µM | > 100 µM | > 100 µM | > 100 µM | – | > 100 µM | > 100 µM
COc1ccc(-n2c3c(c4c(CN(C)C)c(O)ccc42)C(=O)c2ccccc2C3=O)cc1 | 8.47 µM | 52.2 µM | 34.5 µM | 41.2 µM | 29.2 µM | 44.8 µM | 6.3 µM | 8.35 µM | 11.8 µM | 33.2 µM | 7.53 µM | 30.8 µM | 4.62 µM | > 100 µM | 17.1 µM | – | 5.42 µM | 3.89 µM
S=C(c1c[nH]c2ccccc12)N1CCN(c2ccccc2)CC1 | > 100 µM | > 100 µM | > 100 µM | > 100 µM | > 100 µM | – | > 100 µM | > 100 µM | > 100 µM | > 100 µM | > 100 µM | > 100 µM | > 100 µM | 77.8 µM | > 100 µM | > 100 µM | – | > 100 µM
O=c1c(-c2ccccc2Cl)coc2cc(F)ccc12 | 47.2 µM | > 100 µM | > 100 µM | > 100 µM | 83.9 µM | 87.1 µM | > 100 µM | > 100 µM | 55.6 µM | 48.6 µM | > 100 µM | > 100 µM | – | 35.3 µM | > 100 µM | > 100 µM | – | 31.6 µM
COc1ccc(Nc2nc(N)c(C(=O)c3ccccc3)s2)cc1 | > 72.5 µM | 24.2 µM | 33.3 µM | > 100 µM | > 72.8 µM | > 92.7 µM | 15.4 µM | > 80.6 µM | – | > 100 µM | > 100 µM | > 100 µM | > 100 µM | > 100 µM | > 78.4 µM | 29.5 µM | – | 0.0327 µM
CC(C)(C)OC(=O)NC(Cc1ccc(OCc2ccccc2)cn1)C(=O)N1CCSCC1 (stereo not given) | > 100 µM | 88.5 µM | > 100 µM | 82.5 µM | > 100 µM | > 100 µM | > 100 µM | > 100 µM | > 100 µM | > 100 µM | > 100 µM | > 100 µM | > 100 µM | > 100 µM | > 100 µM | – | > 100 µM | > 100 µM
N#C[C@@]12CCCC(=O)[C@@H]1[C@H]1CCC[C@H]12 | 31.5 µM | – | 31.4 µM | 36.2 µM | 28.8 µM | 38 µM | 52.4 µM | 57.4 µM | 30.2 µM | 44.6 µM | 45.2 µM | 23.7 µM | 37.7 µM | 35.5 µM | 25.7 µM | 47.6 µM | 31.7 µM | 59.9 µM
O=C1OC(C2OC(=O)c3cc(O)c(O)c(O)c3-c3c(O)c(O)c4oc(=O)c5c(c(O)c(O)c6oc(=O)c3c4c65)-c3c(cc(O)c(O)c3O)C(=O)OCC2O)C2OC(=O)c3c(c(O)c(O)c(O)c3[C@H]2O)-c2c1cc(O)c(O)c2O (stereo not given in full) | > 100 µM | 73.5 µM | 22.4 µM | > 100 µM | > 100 µM | 87.1 µM | 31.6 µM | 37.6 µM | 39.5 µM | 68.5 µM | 48.9 µM | 67.5 µM | 42.5 µM | 57.6 µM | 47.3 µM | 44.2 µM | > 100 µM | –
